Results reported in US4148786A, “Analgesic polypeptide” (American Home Products Corporation, priority 1978, dated 1979).
Several values for one entry are separate records, joined by “and”; a condition that tells them apart may be missing. Equal values may be shown once. Read-outs that look alike come from different tables or passages of the source. Where a SMILES comes first, the peptide text is derived from it. Bridges are numbered along the chain shown (N, C = ends). [ ]: non-standard residue; d: D form.

Experiments:
[1] = system: male rats; experiment: rat-tail flick test of D'Amour and Smith; assay type: in vivo
[2] = system: male rats; experiment: rat-tail flick test of D'Amour and Smith; assay type: in vivo; conditions: for Positive Responses / Total Possible Responses: all time periods
Procedure: The holders were situated so that a high intensity light beam would shine on the tip of the rats tail. The light beam intensity was adjusted so that normal rats respond by removing their tails from the light stimulus within from 3 to 8 seconds. The average of three time readings for removal of a rats tail from the light beam, taken 20 minutes apart serves as a pre-drug control. The rats were selected for use based upon control readings that agreed within one second. The compounds of this invention were then administered intravenously and the test performed at 15, 30 and 60 minutes to determine the animals reaction time which was compared with the control average and tested for significance. The number of rats showing analgesia at each time period out of the total group for each dose administered is noted as a ratio and the number of positive responses observed is relative to the total number of challenges for each group of rats.

[3] = system: rats; conditions: cited from earlier work; for analgesia: injection in the brain ventricle in rats
[4] = central administration; cited from earlier work
[5] = administered peripherally; cited from earlier work
[6] = system: mice; conditions: central administration; cited from earlier work
[7] = system: opiate receptor; experiment: opiate receptor binding affinity (method of Chang et al.); conditions: two assays
Procedure: The opiate receptor binding affinity of the compound of Example 2 was determined following the method of Chang et al., Life Sciences, 18, 1473-82(1976).

[8] = system: rats; conditions: peripheral (i.v.); cited from earlier work

Molecule	No. Analgesic / Total No. Tested ([1]; 5 mg/kg iv, 30 minutes)	Comments: respiratory depression ([2]; 5 mg/kg iv)	No. Analgesic / Total No. Tested ([2]; 5 mg/kg iv, 15 minutes)	No. Analgesic / Total No. Tested ([2]; 5 mg/kg iv, 60 minutes)	Positive Responses / Total Possible Responses ([2]; 5 mg/kg iv)	Positive Responses / Total Possible Responses ([1]; 1 mg/kg iv, all time periods)	No. Analgesic / Total No. Tested ([2]; 1 mg/kg iv, 15 minutes)	No. Analgesic / Total No. Tested ([2]; 1 mg/kg iv, 30 minutes)	No. Analgesic / Total No. Tested ([2]; 1 mg/kg iv, 60 minutes)	further results
CN1C(=O)CNC(=O)[C@H](NC(=O)[C@@H](N)Cc2ccc(O)cc2)CSSC[C@H](C(N)=O)NC(=O)[C@@H]1Cc1ccccc1 [Example 4, L-Tyrosyl-D-cysteinyl-glycyl-N-methyl-L-phenylalanyl-D-cysteinylamide cyclic (2-5) disulfide]	4/6	3/6 respiratory depression	5/6	3/6	12/18	–	–	–	–	–
CN[C@@H](Cc1ccc(O)cc1)C(=O)N[C@@H]1CSSC[C@H](C(N)=O)NC(=O)[C@H](Cc2ccccc2)NC(=O)CNC1=O [Example 6, N-Methyl-L-tyrosyl-D-cysteinyl-glycyl-L-phenylalanyl-D-cysteinylamide cyclic (2-5) disulfide]	4/4	3/3 respiratory depression	6/6	3/3	13/13	14/18	6/6	5/6	3/6	Comments: dead ([1]; 5 mg/kg iv): 3
NC(=O)[C@@H]1CSSC[C@@H](NC(=O)[C@@H](N)Cc2ccc(O)cc2)C(=O)NCC(=O)N[C@@H](Cc2ccccc2)C(=O)N1 [Example 3, L-Tyrosyl-D-Cysteinyl-glycyl-L-phenylalanyl-L-cysteinyl amide cyclic (2-5) disulfide]	5/6	3/6 moderate to severe respiratory	6/6	4/6	15/18	7/18	4/6	2/6	1/6	–
H-Tyr-D-Ala-Gly-Phe-D-Met-NH2	–	–	–	–	–	–	–	–	–	analgesic activity ([3]; centrally administered, rats): produced analgesic activity
H-Tyr-D-Ala-Gly-Phe-Met-NH2	–	–	–	–	–	–	–	–	–	analgesia [4]: long lasting analgesic
H-Tyr-D-Ala-Gly-Phe-D-Leu-OH	–	–	–	–	–	–	–	–	–	antinociceptive and behavioral effects ([3]; central administration, rats): exhibit antinociceptive and behavioral effects; analgesic activity on peripheral administration [5]: exhibit peripheral analgesic activity; antinociceptive and behavioral effects [6]: exhibit antinociceptive and behavioral effects
NC(=O)[C@H]1CSSC[C@@H](NC(=O)[C@@H](N)Cc2ccc(O)cc2)C(=O)NCC(=O)N[C@@H](Cc2ccccc2)C(=O)N1 [Example 2, L-Tyrosyl-D-cysteinyl-glycyl-L-phenylalanyl-D-cysteinyl amide cyclic (2-5) disulfide]	5/5	4/4 Respiration very depressed	5/5	4/4	14/14	10/12 and 12/18	4/5 and 4/6	4/4 and 5/6	2/3 and 3/6	displacement potency relative to morphine [7]: 100 times that of morphine and 109 times that of morphine; No. Analgesic / Total No. Tested ([1]; 0.1 mg/kg iv, 15 minutes): 2/6; No. Analgesic / Total No. Tested ([1]; 0.1 mg/kg iv, 30 minutes): 0/6; No. Analgesic / Total No. Tested ([1]; 0.1 mg/kg iv, 60 minutes): 0/6; Positive Responses / Total Possible Responses ([1]; 0.1 mg/kg iv, all time periods): 2/18; Comments: respiratory depression ([1]; 0.5 mg/kg iv): 1/6 slight respiratory depression; No. Analgesic / Total No. Tested ([1]; 0.5 mg/kg iv, 15 minutes): 3/6 and 4/6; No. Analgesic / Total No. Tested ([1]; 0.5 mg/kg iv, 30 minutes): 2/6 and 3/6; Positive Responses / Total Possible Responses ([1]; 0.5 mg/kg iv, all time periods): 6/10 and 9/18; Comments: dead ([1]; 1 mg/kg iv): 3/6; Comments: respiratory depression ([1]; 1 mg/kg iv): 2/3 severe respiratory depression and Slight depression; Comments: dead ([1]; 5 mg/kg iv): 2/6; Positive Responses / Total Possible Responses ([1]; 5 mg/kg s.c.): 7/24; No. Analgesic / Total No. Tested ([1]; 5 mg/kg s.c., 15 minutes): 4/6; No. Analgesic / Total No. Tested ([2]; 0.5 mg/kg iv, 60 minutes): 1/6 and 2/6
H-Y[dM]GFP-NH2	–	–	–	–	–	–	–	–	–	analgesic activity [8]: peripheral (i.v.) analgesic activity
N=C(N)NCCC[C@H](N)C(=O)N[C@@H](Cc1ccc(O)cc1)C(=O)N[C@@H]1CSSC[C@H](C(N)=O)NC(=O)[C@H](Cc2ccccc2)NC(=O)CNC1=O [Example 5, L-Arginyl-L-tyrosyl-D-cysteinyl-glycyl-L-phenylalanyl-D-cysteinylamide cyclic (3-6) disulfide] (H-RY[dC]GF[dC]-NH2; disulfide 3-6)	5/5	3/5 respiratory depression	6/6	5/5	16/16	9/18	4/6	3/6	2/6	No. Analgesic / Total No. Tested ([1]; 0.5 mg/kg iv, 15 minutes): 2/6; No. Analgesic / Total No. Tested ([1]; 0.5 mg/kg iv, 30 minutes): 2/6; Positive Responses / Total Possible Responses ([1]; 0.5 mg/kg iv, all time periods): 4/18; Comments: dead ([1]; 5 mg/kg iv): 1; No. Analgesic / Total No. Tested ([2]; 0.5 mg/kg iv, 60 minutes): 0/6
H-Tyr-Gly-Gly-Phe-Met-OH [methionine-enkephalin]	–	–	–	–	–	–	–	–	–	analgesia [3]: induce a profound analgesia
H-Tyr-Gly-Gly-Phe-Leu-OH [leucine-enkephalin]	–	–	–	–	–	–	–	–	–	analgesia [3]: induce a profound analgesia
